From PMC10197068 (Bioconjugate Chemistry, 2023)
Several values for one entry are separate records, joined by “and”; a condition that tells them apart may be missing. Equal entries are not always repeated.

Columns and labels:
[1] = tested on: G2T1 (DNA, G4) AGGGTTAGGGTTAGGGTTAGGGTTAGGGTTAGGGTTAGGGTTAGGG; assay: CD melting at 295 nm; settings: 100 mM NaCl, 10 mM Li cacodylate, pH 7.3, 3 μM DNA
[2] = tested on: G2T6 (DNA, G4) AGGGTTAGGGTTAGGGTTAGGGTTATTATTATTATTATTAGGGTTAGGGTTAGGGTTAGGG; assay: CD melting at 295 nm; settings: 100 mM NaCl, 10 mM Li cacodylate, pH 7.3, 3 μM DNA
[3] = tested on: G2T1 (K+) dimeric HTelo G4 DNA; assay: Emission titration with G2T1 (K+); format: binding, human; settings: Table S2, unit not given, ligand 2 μM, 100 mM KCl, 10 mM Li cacodylate, pH 7.3, exc 440 nm, em 590 nm, triplicate
Experimental: (§1) Next, emission titrations were carried out with the emissive Pt^II compounds M2 and D3–8 and G4/duplex DNA to obtain association constants. Both Na^+ and K^+ stabilized monomeric and dimeric G4 DNA were investigated. Additionally, titrations were carried out with CT-DNA to evaluate the selectivity for G4 versus duplex DNA. Figure 5 summarizes the obtained results (see Figures S24–S37 and Table S2 for a full set of titration data). First discussed are the experiments conducted in Na^+ buffer, in which the G4 topology formed is antiparallel.[41] […] As discussed previously, this could potentially be caused by a “sandwiched” binding mode in which the metal-salphen complex sits between two G-quadruplex units. For dimeric metal-salphen complexes D3–8, however, there are several differences when compared to the CD melting studies. […] Upon increasing the linker length to a two-amino-acid sequence (RR and KK for compounds D4 and D5, respectively), larger Ka values were obtained with minimal change to the pattern of selectivity. […] Increasing the linker length to an eight-amino-acid sequence (RRRRRRRR) led to a similar stabilization of G2T6, while G1 stabilization increased.
(§2) G-Quadruplex oligonucleotides were purchased from Eurogentec (Belgium), and CT-DNA was purchased from Sigma-Aldrich. Stock solutions were prepared via dilution in the appropriate buffers to concentrations of 300–400 μM determined by UV–vis measurements in which increasing amounts of DNA were added to a cuvette and the absorbance at 260 nm recorded using an Agilent Cary UV 60 spectrometer. Prior to use, the DNA stock solutions were annealed by heating at 95 °C for 5 min and then cooling to room temperature overnight.
(§3) Experiments were carried out using a BMG Clariostar Microplate reader with Greiner Bio-One half-volume (100 μL/well) plates. Excitation was carried out at 440 nm and recorded from 500 to 700 nm in addition to a matrix scan at 590 nm. Titrations were carried out using G1, G2T1, and G2T6 (Na^+) G4 DNA (100 mM NaCl, 10 mM Li cacodylate, pH 7.3); G1, G2T1, and G2T6 (K^+) G4 DNA (100 mM KCl, 10 mM Li cacodylate, pH 7.3); and CT-DNA (100 mM KCl, 10 mM Li cacodylate, pH 7.3). Ligand concentration was kept constant at 2 μM, and the following DNA equivalents were tested: 0, 0.1, 0.2, 0.3, 0.4, 0.5, 0.75, 1, 1.5, 2, 3, and 5 (for CT-DNA 10× base pair equivalents were used, i.e., 1 to 50 BPE). Sample preparation was carried out by preparing stock solutions of double concentration ligand (4 μM) and DNA in the appropriate buffer, before 50 μL of each was added to the appropriate well and mixed. Experiments were conducted in triplicate and binding constants were obtained by curve fitting in Graphpad Prism 8 using eq 1.[46] [drawing 1] 1
(§4) Fluorescence response (y) was fitted against DNA concentration (x); R is the machine response, K is the association constant of ligand and DNA, L is the concentration of ligand, and n is the number of binding sites per DNA. The values of L and n were varied so that that the L was equal to the number of salphen units and n was equal to the number of G4 faces per DNA. The matrix scan results were used to plot the titration curves and 500–700 nm scan results were used to confirm that expected curve shapes and shifts were observed.

[4] = tested on: G2T1 (Na+) dimeric HTelo G4 DNA; assay: Emission titration with G2T1 (Na+); format: binding, human; settings: Table S2, unit not given, ligand 2 μM, 100 mM NaCl, 10 mM Li cacodylate, pH 7.3, exc 440 nm, em 590 nm, triplicate
Experimental: as §1, §2, §3, §4

[5] = tested on: G1 (K+) monomeric HTelo G4 DNA; assay: Emission titration with G1 (K+); format: binding, human; settings: Table S2, unit not given, ligand 2 μM, 100 mM KCl, 10 mM Li cacodylate, pH 7.3, exc 440 nm, em 590 nm, triplicate
Experimental: as §1, §2, §3, §4

[6] = tested on: G2T6 (K+) dimeric HTelo G4 DNA; assay: Emission titration with G2T6 (K+); format: binding, human; settings: Table S2, unit not given, ligand 2 μM, 100 mM KCl, 10 mM Li cacodylate, pH 7.3, exc 440 nm, em 590 nm, triplicate
Experimental: as §1, §2, §3, §4

[7] = tested on: G2T1 (Na+) dimeric HTelo G4 DNA, AGGG(TTAGGG)7; assay: CD melting with G2T1 (Na+); format: binding, human
Experimental: (§5) Next, the DNA binding properties of the monomeric and dimeric compounds were studied. […] The following notation is used: […] The CD melting experiments were conducted solely with Na^+ stabilized DNA, which forms an antiparallel topology in solution (cf., in the presence of K^+ a mixture of topologies is observed). During the assay the temperature was increased from 25 to 95 °C upon which the intensity of signals with negative ellipticity at ca. 265 nm and positive ellipticity at ca. 295 (characteristic of an antiparallel G4 structure) decreased-see Figure 4a. This indicates the expected unfolding of the G4 DNA structure as the temperature increases. The changes in intensity were subsequently used to produce the corresponding melting curves (Figure 4b) for each sequence in the absence and presence of the different compounds under study. From these curves, the ΔTm values for the different sequences and compounds were determined, and the results are summarized in Figure 4c (see Supplementary Table 1 for values). […] G-Quadruplex oligonucleotides were purchased from Eurogentec (Belgium), and CT-DNA was purchased from Sigma-Aldrich. […] Prior to use, the DNA stock solutions were annealed by heating at 95 °C for 5 min and then cooling to room temperature overnight. Experiments were carried out on a Jasco J-810 spectrophotometer using a 1 cm quartz cuvette. Temperature was controlled using a Peltier module. The signal at 295 nm was monitored as temperature was increased for 25 to 95 °C at a rate of 2 °C/min. CD melting experiments were carried out with the appropriate G4 DNA (100 mM NaCl, 10 mM Li cacodylate, pH 7.3). Sample preparation was carried out by combining stock solutions of ligand and DNA in the appropriate buffer. […] Melting temperatures were obtained by curve fitting in Graphpad Prism 8. The data was normalized and fitted to a variable slope Hill equation, and the melting temperature was defined at the temperature at which y = 0.5.

[8] = tested on: G2T6 (Na+) dimeric HTelo G4 DNA, AGGG(TTAGGG)3(TTA)5(TTAGGG)4; assay: CD melting with G2T6 (Na+); format: binding, human
Experimental: as §5

[9] = tested on: G1 (Na+) monomeric HTelo G4 DNA; assay: Emission titration with G1 (Na+); format: binding, human; settings: Table S2, unit not given, ligand 2 μM, 100 mM NaCl, 10 mM Li cacodylate, pH 7.3, exc 440 nm, em 590 nm, triplicate
Experimental: as §1, §2, §3, §4

[10] = tested on: G1 (Na+) monomeric HTelo G4 DNA, AGGG(TTAGGG)3; assay: CD melting with G1 (Na+); format: binding, human; settings: CD melting at 295 nm, 25 to 95 °C at 2 °C/min; 100 mM NaCl, 10 mM Li cacodylate, pH 7.3; [G4 unit] 6 μM, [salphen unit] 12 μM
Experimental: as §5

[11] = tested on: G2T6 (Na+) dimeric HTelo G4 DNA; assay: Emission titration with G2T6 (Na+); format: binding, human; settings: Table S2, unit not given, ligand 2 μM, 100 mM NaCl, 10 mM Li cacodylate, pH 7.3, exc 440 nm, em 590 nm, triplicate
Experimental: as §1, §2, §3, §4

[12] = tested on: G1 (DNA, G4) AGGGTTAGGGTTAGGGTTAGGG; assay: CD melting at 295 nm; settings: 100 mM NaCl, 10 mM Li cacodylate, pH 7.3, 6 μM DNA
[13] = 6 μM compound (12 μM salphen units)
[14] = CD melting at 295 nm, 25 to 95 °C at 2 °C/min, 100 mM NaCl, 10 mM Li cacodylate, pH 7.3, [G4 unit] 6 μM (3 μM dimeric sequence), [salphen unit] 12 μM

Compound: C[N+](C)(C)CCOc1ccc(C=Nc2ccc(C(=O)NCc3cn(CC(=O)N[C@@H](CCCNC(=N)N)C(=O)N[C@@H](CCCCN)C(=O)N[C@@H](CCCCN)C(=O)N[C@@H](CCCNC(=N)N)C(=O)N[C@@H](Cn4cc(CNC(=O)c5ccc(N=Cc6ccc(OCC[N+](C)(C)C)cc6[O-])c(N=Cc6ccc(OCC[N+](C)(C)C)cc6[O-])c5)nn4)C(N)=O)nn3)cc2N=Cc2ccc(OCC[N+](C)(C)C)cc2[O-])c([O-])c1.[Pt+2].[Pt+2]
- ΔTm [1, 13]: 16.3 °C
- ΔTm [2, 13]: 13.8 °C

Compound: C[N+](C)(C)CCOc1ccc(C=Nc2ccccc2N=Cc2ccc(OCC[N+](C)(C)C)cc2[O-])c([O-])c1.[Pt+2]
- ΔTm ([1]; 12 μM compound): 21 °C
- ΔTm ([2]; 12 μM compound): 19 °C

Compound: RKKR [Compound D7]
- Association constant G2T1 (K+), mean [3]: 0.18
- Association constant G2T1 (Na+), mean [4]: 0.36
- Association constant G1 (K+), mean [5]: 0.39
- Association constant G2T6 (K+), mean [6]: 0.42
- ΔTm G2T1 (Na+) [7, 14]: 16.33 °C and 16.3 °C
- fold increase in stabilization of G2T1 ([7]; ΔTm of D7 relative to D4): 1.1 fold
- ΔTm G2T6 (Na+) [8, 14]: 13.81 °C and 13.8 °C
- fold increase in stabilization of G2T6 ([8]; ΔTm of D7 relative to D3): 2.1 fold
- Association constant G1 (Na+), mean [9]: 0.21
- ΔTm G1 (Na+) [10]: 2.6 °C
- Association constant G2T6 (Na+), mean [11]: 0.69

Compound: C[N+](C)(C)CCOc1ccc(C=Nc2ccc(C(=O)NCc3cn(CC(=O)N[C@@H](CCCCN)C(=O)N[C@@H](CCCCN)C(=O)N[C@@H](Cn4cc(CNC(=O)c5ccc(N=Cc6ccc(OCC[N+](C)(C)C)cc6[O-])c(N=Cc6ccc(OCC[N+](C)(C)C)cc6[O-])c5)nn4)C(N)=O)nn3)cc2N=Cc2ccc(OCC[N+](C)(C)C)cc2[O-])c([O-])c1.[Pt+2].[Pt+2]
- ΔTm [12, 13]: 5.5 °C

Compound: C[N+](C)(C)CCOc1ccc(C=Nc2ccc(C(=O)NCc3cn(CCOCCn4cc(CNC(=O)c5ccc(N=Cc6ccc(OCC[N+](C)(C)C)cc6[O-])c(N=Cc6ccc(OCC[N+](C)(C)C)cc6[O-])c5)nn4)nn3)cc2N=Cc2ccc(OCC[N+](C)(C)C)cc2[O-])c([O-])c1.[Pt+2].[Pt+2]
- ΔTm [2, 13]: 6.4 °C
- ΔTm ([12]; 6 μM compound, b22 states 1.1–1.5 °C for D1–4): 3.0 °C
